Assay results reported in PubChem BioAssay (NCI).
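All cell lines were grown in 96-well plates and treated with compound for 48 hours. The concentration for 50% growth inhibition is given as GI50. Definition used: TGI = concentration required for complete inhibition of growth.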

What was measured:
Experiment in all cases: NCI anticancer screen, dose series, 48 h
[1] = tested on: UACC-62 melanoma
[2] = tested on: COLO 205 colon
[3] = tested on: EKVX NSCLC
[4] = tested on: OVCAR-8 ovarian
[5] = tested on: LOX IMVI melanoma
[6] = tested on: NCI-H23 lung
[7] = tested on: SK-MEL-28 melanoma
[8] = tested on: UO-31 renal
[9] = tested on: MOLT-4 leukemia
[10] = tested on: SNB-75 CNS

Row | Compound | TGI [1] [µM] | TGI [2] [µM] | TGI [3] [µM] | TGI [4] [µM] | TGI [5] [µM] | TGI [6] [µM] | TGI [7] [µM] | TGI [8] [µM] | TGI [9] [µM] | GI50 [10] [µM] | TGI [10] [µM] | GI50 [1] [µM] | GI50 [2] [µM] | GI50 [3] [µM] | GI50 [4] [µM] | GI50 [5] [µM] | GI50 [6] [µM] | GI50 [7] [µM] | GI50 [8] [µM] | GI50 [9] [µM]
1 | COc1ccc2c(c1)CC[C@@H]1[C@@H]2CC[C@]2(C)C(=O)/C(=C/c3ccc(O)c(OC)c3)C[C@@H]12 | > 100 | > 100 | > 100 | > 100 | > 100 | > 100 | > 100 | > 100 | 92.1 | – | – | – | – | – | – | – | – | – | – | –
2 | COc1ccc2nc3ccccc3c(NCc3ccc(C)cc3)c2c1 | 3.26 | 3.78 | 7.94 | 7.27 | 2.95 | 4.26 | 3.29 | 2.65 | 11.5 | 1.49 | 2.85 | 1.64 | 1.65 | 2.5 | 2.24 | 1.54 | 1.68 | 1.75 | 1.28 | 3.04
3 | C[C@]12CCC(=O)C=C1CC[C@@H]1[C@@H]2[C@@H](O)C[C@@]2(C)[C@H]1CC[C@]2(O)C(=O)COC(=O)C1CCCC1 | > 100 | > 100 | > 100 | > 100 | > 100 | > 100 | > 100 | > 100 | – | – | > 100 | – | – | – | – | – | – | – | – | –
4 | C[N+](C)(CCO)CCN1c2ccccc2Sc2ccccc21 | > 10 | > 10 | > 10 | > 10 | > 10 | > 10 | > 10 | > 10 | > 10 | – | > 10 | – | – | – | – | – | – | – | – | –
5 | Cc1ccc(SSCCCCCS(=O)O)cc1 | 49.5 | – | > 100 | – | 30.9 | 88.9 | > 100 | 67.2 | 40.3 | – | 63.1 | – | – | – | – | – | – | – | – | –
6 | Nc1nc(=O)n(CC(O)CO)s1 (stereo not given) | > 100 | > 100 | > 100 | > 100 | > 100 | > 100 | – | > 100 | > 100 | – | > 100 | – | – | – | – | – | – | – | – | –
7 | O=C(COc1ccc(Cl)cc1Cl)N/N=C/C=C/c1ccc([N+](=O)[O-])o1 | > 100 | – | > 100 | 76.6 | 38.9 | 39 | > 100 | > 100 | 6.14 | – | 59.2 | – | – | – | – | – | – | – | – | –
8 | Cn1c(=O)c2c(nc(NCCNc3nc4c(c(=O)n(C)c(=O)n4C)n3C)n2C)n(C)c1=O | > 100 | – | > 100 | > 100 | > 100 | > 100 | > 100 | > 100 | > 100 | – | > 100 | – | – | – | – | – | – | – | – | –
9 | O=C(NNC(=O)c1nsc2ccccc12)c1ccc(Cl)cc1 | – | 66 | 42.3 | 72.8 | 36.5 | 59.9 | 36.1 | 55.4 | 50.2 | – | 15.6 | – | – | – | – | – | – | – | – | –
10 | COc1ccc(C2C(C=O)C(N3CCN(C)CC3)=Nc3nc4ccccc4n32)cc1 (stereo not given) | 36.5 | 36 | 97.3 | 33.1 | 34.1 | 44.8 | 34.8 | 32.4 | 12.3 | – | 31.3 | – | – | – | – | – | – | – | – | –
11 | Fc1c(F)c(C(F)(F)F)c(F)c(F)c1N/N=C/c1cn(Cc2ccccc2)c2ccccc12 | 61.5 | 26.8 | 43 | > 100 | 47.3 | 79.9 | > 100 | 52.9 | 83.3 | – | 62.4 | – | – | – | – | – | – | – | – | –
12 | N#C[S-].[Ce+3].c1cnc2c(c1)ccc1cccnc12.c1cnc2c(c1)ccc1cccnc12.c1cnc2c(c1)ccc1cccnc12 | 10.1 | 13.4 | 17.4 | 17.5 | 10.9 | 75.6 | 26.9 | 11.5 | > 100 | – | 22.2 | – | – | – | – | – | – | – | – | –
13 | O=S(O)c1cc(Cl)cc(Cl)c1OCc1ccccc1 | > 100 | – | > 100 | – | > 100 | > 100 | > 100 | > 100 | > 100 | – | > 100 | – | – | – | – | – | – | – | – | –
14 | CC(=O)C1=C(O)CCC1=O | > 100 | > 100 | > 100 | > 100 | > 100 | > 100 | > 100 | > 100 | > 100 | – | > 100 | – | – | – | – | – | – | – | – | –
15 | NC(CC(=O)O)(Cc1ccccc1)C(=O)O (stereo not given) | > 100 | > 100 | > 100 | > 100 | > 100 | > 100 | > 100 | > 100 | > 100 | – | > 100 | – | – | – | – | – | – | – | – | –
16 | CNC(=O)Nc1ccccc1 | > 100 | > 100 | > 100 | > 100 | > 100 | > 100 | > 100 | > 100 | > 100 | – | > 100 | – | – | – | – | – | – | – | – | –
